Structures can show the parent of a compound that is named as a salt.
Assays:
Corn [1] = test: Post-emergence herbicide test, corn; assay type: in vivo, Zea mays
Procedure: (§1) In this evaluation, each compound to be tested was dissolved in a 1:1 mixture of acetone and ethanol containing a small amount of Toximul R and Toximul S (each a sulfonate/nonionic blend produced by Stepan Chemical Company, Northfield, Illinois). The solution was then diluted with deionized water to a composition of the following concentrations, by weight: Plant species used as indicators of herbicidal activity were planted in galvanized pans (flats) 31.5 cm. long, 21.5 cm. wide, and 8.0 cm. deep. The bottoms of the flats had holes to facilitate drainage. The soil used was a 1:1 ratio by volume of masonry sand and shredded top soil. Seeds of seven indicator species were planted in rows perpendicular to the long axis of the flat, one species per row, and covered with 0.5 to 1.0 cm. of sterilized soil. Indicator species and approximate number of seeds planted were as follows: Flats that were to receive preemergence treatments were planted one day prior to, or on the same day treatments were applied. Flats that were to receive postemergence treatments were planted 9 days prior to treatment and placed in a growth chamber until the day of treatment. In the growth chamber, flats received 12 to 18 hours of light per day and were subject to temperatures of 75° to 85° F. The formulated test compound was applied uniformly to the indicator species with a modified DeVilbiss atomizer using air pressure of 3 to 5 psi. Each flat received 12.5 ml. of spray solution which was equal to 200 gallons/acre total spray volume. Plants were maintained in a greenhouse after treatment. Herbicidal effects of chemicals were evaluated by two injury rating systems 18 days after preemergence applications and 14 days after postemergence applications. The degree of plant injury was based on a 1 to 5 scale and a single numerical rating was assigned to each test species as follows: […]

Zinnia [2] = test: Post-emergence herbicide test, zinnia; assay type: in vivo, Zinnia elegans
Procedure: as §1

Velvetleaf [3] = test: Pre-emergence herbicide test, velvetleaf; assay type: in vivo, Abutilon theophrasti; conditions: 8 lb/A
Procedure: as §1

Mexican bean beetle = Mexican bean beetle test; assay type: in vivo, Epilachna varivestis; conditions: 1000 ppm, 4 days; also: ranges in brackets are in %
Procedure: (§2) In this evaluation, each compound to be tested was dissolved in a 1:1 mixture of acetone and ethanol containing a small amount of Toximul R and Toximul S (each a sulfonate/nonionic blend produced by Stephan Chemical Company, Northfield, Ill.). The solution was then diluted with distilled water to a concentration of 1000 ppm of test compound.
This test was conducted with second instar larvae of Epilachna varivestis Mulsant, order Coleoptera, family Coccinellidae. Larvae for the test, of uniform size and not molting, were picked by hand from flats of Bountiful snap beans on which they were grown and were placed in 100×20 mm plastic petri dishes for testing. Five larvae were used per replicate.
Two 4- to 6-day-old Bountiful green bean primry leaves (approximately 6 sq. in. of leaf surface) were used for each replicate. Two replicates were run per compound.
[…] […] The nozzle of the atomizer was held 12 to 18 inches from the leaves and was supplied with 5-6 psi air pressure. The atomizer was rinsed with acetone after each compound was sprayed. The plants were allowed to dry. The leaves were then cut from the plants and placed in the petri dishes containing the bean beetle larvae. A small wad of wet cellucotton was added to each dish to help prevent the leaves from wilting.
After 4 days, a mortality count was made and the amount of feeding was noted. Moribund larvae were counted as dead.

Large Crabgrass = test: Pre-emergence herbicide test, large crabgrass; assay type: in vivo, Digitaria sanguinalis; conditions: 8 lb/A
Procedure: as §1

Pigweed = test: Post-emergence herbicide test, pigweed; assay type: in vivo, Amaranthus retroflexus
Procedure: as §1

Morning-glory [4] = test: Post-emergence herbicide test, morningglory; assay type: in vivo, Ipomoea purpurea
Procedure: as §1

Zinnia [5] = test: Pre-emergence herbicide test, zinnia; assay type: in vivo, Zinnia elegans; conditions: 8 lb/A
Procedure: as §1

Corn [6] = test: Pre-emergence herbicide test, corn; assay type: in vivo, Zea mays; conditions: 8 lb/A
Procedure: as §1

two-spotted spider mite = test: Two-spotted spider mite test; assay type: in vivo, Tetranychus urticae; conditions: 1000 ppm, 4 days; also: ranges in brackets are in %
Procedure: as §2, with “compound. Lesser concentration formulations were made by diluting a portion of the 1000 ppm solution with distilled water containing 225 mg. of Toximul R and 125 mg. of Toximul S per liter.” for “compound.”
This test was conducted with nymphs and adults of Tetranychus urticae (Koch), Order Acarina, Family Tetranychidae.
This test was run using blue hubbard squash plants which were grown in vermiculite (insulation grade No. 1) in 5 oz. plastic Dixie cups. One cotyledon is removed from each plant to remain in the cups. On retests two plants were left in each cup and on regular initial tests one plant was left in each cup. Each cotyledon is infested by placing a mite infested trifoliate bean leaf on if. Infected plants in cups were held for one day, then sprayed to wetting with formulations containing 1000 ppm of the test compound, using the DeVilbiss atomizer with 5-6 psi air pressure. Retests were run at 100 ppm. Tests were read four days after treatment. Two unsprayed but infested plants were held as a control. Two infested plants were sprayed with a formulation containing 750 ppm of galecron [N'-(4-chloro-o-tolyl)-N,N-dimethylformamidine monohydrochloride] as a reference standard.

Morning-glory [7] = test: Pre-emergence herbicide test, morningglory; assay type: in vivo, Ipomoea purpurea; conditions: 8 lb/A
Procedure: as §1

Velvetleaf [8] = test: Post-emergence herbicide test, velvetleaf; assay type: in vivo, Abutilon theophrasti
Procedure: as §1

Foxtail = test: Pre-emergence herbicide test, foxtail; assay type: in vivo, Setaria italica; conditions: 8 lb/A
Procedure: as §1

SMILES: O=[N+]([O-])c1cc(Cl)cc2c1NC(O)(C(F)F)N2 (stereo not shown) [Example 5, 2-Hydroxy-2-(Difluoromethyl)-4-Nitro-6-Chlorobenzimidazoline, Calcium Salt]
- plant injury rating (Corn [1]; 1 lb/A): 1 (no injury)
- plant injury rating (Corn [1]; 2 lb/A): 2B
- plant injury rating (Corn [1]; 4 lb/A): 4BS
- plant injury rating (Corn [1]; 8 lb/A): 5D
- plant injury rating (Zinnia [2]; 1 lb/A): 3BS
- plant injury rating (Zinnia [2]; 2 lb/A): 3BS
- plant injury rating (Zinnia [2]; 4 lb/A): 4BS
- plant injury rating (Zinnia [2]; 8 lb/A): 5D
- plant injury rating (Velvetleaf [3]): 3RS
- Mexican Bean Beetle Stom. (mortality rating) (Mexican bean beetle): 3 (100)
- plant injury rating (Large Crabgrass): 3RS
- plant injury rating (Pigweed; 1 lb/A): 2S
- plant injury rating (Pigweed; 2 lb/A): 3BS
- plant injury rating (Pigweed; 4 lb/A): 3BS
- plant injury rating (Pigweed; 8 lb/A): 4BS
- plant injury rating (Morning-glory [4]; 1 lb/A): 2BS
- plant injury rating (Morning-glory [4]; 2 lb/A): 2BS
- plant injury rating (Morning-glory [4]; 4 lb/A): 3BS
- plant injury rating (Morning-glory [4]; 8 lb/A): 4BS
- plant injury rating (Zinnia [5]): 4R
- plant injury rating (Corn [6]): 1 (no injury)
- 2-Sp. Spider Mite Cont. (mortality rating) (two-spotted spider mite): 3 (100)
- plant injury rating (Morning-glory [7]): 3RS
- plant injury rating (Velvetleaf [8]; 1 lb/A): 3BS
- plant injury rating (Velvetleaf [8]; 2 lb/A): 3BS
- plant injury rating (Velvetleaf [8]; 4 lb/A): 4BS
- plant injury rating (Velvetleaf [8]; 8 lb/A): 5D
- plant injury rating (Foxtail): 3R
